Values after ≈ are worked out from the molar mass of the structure shown. Active and inactive are the calls of the source. The rule behind the calls is not given here.
What was measured:
Candida tropicalis [1] = experiment: Inhibition of chitin synthase extracted from Candida tropicalis ATCC 750 using UDP-GlcNAc as substrate assessed as inhibition rate at 300 ug/ml by TMB based microplate analyzer relative to control; settings: dose 300.0 µg/ml
[2] = Inhibition of chitin synthase extracted from Candida tropicalis ATCC 750 using UDP-GlcNAc as substrate assessed as inhibition rate by TMB based microplate analyzer relative to control
Candida tropicalis [3] = experiment: Non-competitive inhibition of chitin synthase extracted from Candida tropicalis ATCC 750 using UDP-GlcNAc as substrate assessed as decrease in Vm with constant Km at 0 to 0.15 mM by Lineweaver-Burk plot analysis; settings: dose 0-0.15 mM
[4] = Non-competitive inhibition of chitin synthase extracted from Candida tropicalis ATCC 750 using UDP-GlcNAc as substrate assessed as inhibition constant by Lineweaver-Burk plot analysis
Candida albicans [5] = experiment: Antifungal activity against Candida albicans ATCC 76615 assessed as inhibition of growth incubated for 24 hrs by two-fold serial dilution method; format: functional
Aspergillus flavus [6] = experiment: Antifungal activity against Aspergillus flavus ATCC 16870 assessed as inhibition of growth incubated for 24 hrs by two-fold serial dilution method; format: functional
Aspergillus fumigatus [7] = experiment: Antifungal activity against Aspergillus fumigatus GIMCC 3.19 assessed as inhibition of growth incubated for 24 hrs by two-fold serial dilution method; format: functional
Cryptococcus neoformans [8] = experiment: Antifungal activity against Cryptococcus neoformans ATCC 32719 assessed as inhibition of growth incubated for 24 hrs by two-fold serial dilution method; format: functional
Candida albicans [9] = experiment: Antifungal activity against drug-resistant Candida albicans ATCC 76615 assessed as inhibition of cell wall synthesis in presence of sorbitol incubated for 24 hrs; format: functional
Aspergillus flavus [10] = experiment: Antifungal activity against drug-resistant Aspergillus flavus ATCC 16870 assessed as inhibition of cell wall synthesis in presence of sorbitol incubated for 24 hrs; format: functional
Aspergillus fumigatus [11] = experiment: Antifungal activity against drug-resistant Aspergillus fumigatus GIMCC 3.19 assessed as inhibition of cell wall synthesis in presence of sorbitol incubated for 24 hrs; format: functional
Cryptococcus neoformans [12] = experiment: Antifungal activity against drug-resistant Cryptococcus neoformans ATCC 32719 assessed as inhibition of cell wall synthesis in presence of sorbitol incubated for 24 hrs; format: functional
Candida albicans [13] = experiment: Antifungal activity against fluconazole-resistant Candida albicans ATCC 76615 assessed as inhibition of fungal growth incubated for 24 to 72 hrs; format: functional; settings: time 24-72 hrs
Aspergillus flavus [14] = experiment: Antifungal activity against fluconazole-resistant Aspergillus flavus ATCC 16870 assessed as inhibition of fungal growth incubated for 24 to 72 hrs; format: functional; settings: time 24-72 hrs
Aspergillus fumigatus [15] = experiment: Antifungal activity against fluconazole-resistant Aspergillus fumigatus GIMCC 3.19 assessed as inhibition of fungal growth incubated for 24 to 72 hrs; format: functional; settings: time 24-72 hrs
Cryptococcus neoformans [16] = experiment: Antifungal activity against fluconazole-resistant Cryptococcus neoformans ATCC 32719 assessed as inhibition of fungal growth incubated for 24 to 72 hrs; format: functional; settings: time 24-72 hrs
Candida albicans [17] = experiment: Antifungal activity against micafungin-resistant Candida albicans ATCC 76615 assessed as inhibition of fungal growth incubated for 24 to 72 hrs; format: functional; settings: time 24-72 hrs
Candida albicans [18] = experiment: Antifungal activity against Candida albicans ATCC 76615 incubated for 24 hrs by half broth dilution based checkerboard method; format: functional
Aspergillus flavus [19] = experiment: Antifungal activity against Aspergillus flavus ATCC 16870 incubated for 24 hrs by half broth dilution based checkerboard method; format: functional
Aspergillus fumigatus [20] = experiment: Antifungal activity against Aspergillus fumigatus GIMCC 3.19 incubated for 24 hrs by half broth dilution based checkerboard method; format: functional
Cryptococcus neoformans [21] = experiment: Antifungal activity against Cryptococcus neoformans ATCC 32719 incubated for 24 hrs by half broth dilution based checkerboard method; format: functional
Candida albicans [22] = experiment: Antifungal activity against Candida albicans ATCC 76615 assessed as fluconazole MIC incubated for 24 hrs in presence of fluconazole by half broth dilution based checkerboard method; format: functional
Aspergillus flavus [23] = experiment: Antifungal activity against Aspergillus flavus ATCC 16870 assessed as fluconazole MIC incubated for 24 hrs in presence of fluconazole by half broth dilution based checkerboard method; format: functional
Aspergillus fumigatus [24] = experiment: Antifungal activity against Aspergillus fumigatus GIMCC 3.19 assessed as fluconazole MIC incubated for 24 hrs in presence of fluconazole by half broth dilution based checkerboard method; format: functional
Cryptococcus neoformans [25] = experiment: Antifungal activity against Cryptococcus neoformans ATCC 32719 assessed as fluconazole MIC incubated for 24 hrs in presence of fluconazole by half broth dilution based checkerboard method; format: functional
Aspergillus fumigatus [26] = experiment: Synergistic antifungal activity against Aspergillus fumigatus GIMCC 3.19 assessed as fractional inhibitory concentration index in presence of fluconazole incubated for 24 hrs by half broth dilution based checkerboard method; format: functional
Candida albicans [27] = experiment: Synergistic antifungal activity against Candida albicans ATCC 76615 assessed as fractional inhibitory concentration index in presence of fluconazole incubated for 24 hrs by half broth dilution based checkerboard method; format: functional
Aspergillus flavus [28] = experiment: Synergistic antifungal activity against Aspergillus flavus ATCC 16870 assessed as fractional inhibitory concentration index in presence of fluconazole incubated for 24 hrs by half broth dilution based checkerboard method; format: functional
A549 [29] = experiment: Cytotoxicity against human A549 cells assessed as reduction in cell viability at 4 microg/ml incubated for 24 hrs by CCK-8 assay relative to control; format: toxicity, cell-based; settings: a549, 24 h, at 4 µg/mL
A549 [30] = experiment: Cytotoxicity against human A549 cells assessed as reduction in cell viability at 8 microg/ml incubated for 24 hrs by CCK-8 assay relative to control; format: toxicity, cell-based; settings: a549, 24 h, at 8 µg/mL
A549 [31] = experiment: Cytotoxicity against human A549 cells assessed as reduction in cell viability at 16 microg/ml incubated for 24 hrs by CCK-8 assay relative to control; format: toxicity, cell-based; settings: a549, 24 h, at 16 µg/mL
A549 [32] = experiment: Cytotoxicity against human A549 cells assessed as reduction in cell viability at 32 microg/ml incubated for 24 hrs by CCK-8 assay relative to control; format: toxicity, cell-based; settings: a549, 24 h, at 32 µg/mL
A549 [33] = experiment: Cytotoxicity against human A549 cells assessed as reduction in cell viability at 64 microg/ml incubated for 24 hrs by CCK-8 assay relative to control; format: toxicity, cell-based; settings: a549, 24 h, at 64 µg/mL
A549 [34] = experiment: Cytotoxicity against human A549 cells assessed as reduction in cell viability at 128 microg/ml incubated for 24 hrs by CCK-8 assay relative to control; format: toxicity, cell-based; settings: a549, 24 h, at 128 µg/mL
Cryptococcus neoformans [35] = experiment: Synergistic antifungal activity against Cryptococcus neoformans ATCC 32719 assessed as fractional inhibitory concentration index in presence of fluconazole incubated for 24 hrs by half broth dilution based checkerboard method; format: functional
Candida albicans [36] = experiment: Antifungal activity against Candida albicans ATCC 76615 assessed as Polyoxin B MIC incubated for 24 hrs in presence of fluconazole by half broth dilution based checkerboard method; format: functional
Aspergillus flavus [37] = experiment: Antifungal activity against Aspergillus flavus ATCC 16870 assessed as Polyoxin B MIC incubated for 24 hrs in presence of fluconazole by half broth dilution based checkerboard method; format: functional
Aspergillus fumigatus [38] = experiment: Antifungal activity against Aspergillus fumigatus GIMCC 3.19 assessed as Polyoxin B MIC incubated for 24 hrs in presence of fluconazole by half broth dilution based checkerboard method; format: functional
Cryptococcus neoformans [39] = experiment: Antifungal activity against Cryptococcus neoformans ATCC 32719 assessed as Polyoxin B MIC incubated for 24 hrs in presence of fluconazole by half broth dilution based checkerboard method; format: functional
Candida albicans [40] = experiment: Synergistic antifungal activity against Candida albicans ATCC 76615 assessed as fractional inhibitory concentration index in presence of Polyoxin B incubated for 24 hrs by half broth dilution based checkerboard method; format: functional
Aspergillus flavus [41] = experiment: Synergistic antifungal activity against Aspergillus flavus ATCC 16870 assessed as fractional inhibitory concentration index in presence of Polyoxin B incubated for 24 hrs by half broth dilution based checkerboard method; format: functional
Aspergillus fumigatus [42] = experiment: Synergistic antifungal activity against Aspergillus fumigatus GIMCC 3.19 assessed as fractional inhibitory concentration index in presence of Polyoxin B incubated for 24 hrs by half broth dilution based checkerboard method; format: functional
Cryptococcus neoformans [43] = experiment: Synergistic antifungal activity against Cryptococcus neoformans ATCC 32719 assessed as fractional inhibitory concentration index in presence of Polyoxin B incubated for 24 hrs by half broth dilution based checkerboard method; format: functional

Which inhibition (Candida tropicalis [1]) does the source give for `Cc1cc([N+](=O)[O-])ccc1NC(=O)C1CCN(CC(=O)Nc2ccc3c(c2)NC(=O)C2(CCNC2=O)C3)CC1` (racemic) here?
Its inhibition is 85.2%.

And the IC50 [2]?
Its IC50 is 93 µM.

What about the inhibition (Candida tropicalis [3]) of the same compound?
Its inhibition is “Active”.

What about the Ki [4] of the same compound?
Its Ki is 108 µM.

What about the MIC (Candida albicans [5]) of the same compound?
Its MIC is 8 µg/mL (≈ 15 µM).

And the MIC (Aspergillus flavus [6])?
Its MIC is 16 µg/mL (≈ 29.9 µM).

What about the MIC (Aspergillus fumigatus [7]) of the same compound?
The MIC was 16 µg/mL (≈ 29.9 µM).

What about the MIC (Cryptococcus neoformans [8]) of the same compound?
The MIC was 8 µg/mL (≈ 15 µM).

What about the MIC (Candida albicans [9]) of the same compound?
The MIC was 256 µg/mL.

And the MIC (Aspergillus flavus [10])?
Its MIC is 256 µg/mL.

And the MIC (Aspergillus fumigatus [11])?
The MIC was 128 µg/mL.

What about the MIC (Cryptococcus neoformans [12]) of the same compound?
Its MIC is 512 µg/mL.

What about the MIC (Candida albicans [13]) of the same compound?
Its MIC is 64 µg/mL (≈ 120 µM).

What about the MIC (Aspergillus flavus [14]) of the same compound?
Its MIC is 32 µg/mL (≈ 59.9 µM).

And the MIC (Aspergillus fumigatus [15])?
Its MIC is 32 µg/mL (≈ 59.9 µM).

And the MIC (Cryptococcus neoformans [16])?
The MIC was 64 µg/mL (≈ 120 µM).

And the MIC (Candida albicans [17])?
The MIC was 64 µg/mL (≈ 120 µM).

And the MIC (Candida albicans [18])?
The MIC was 8 µg/mL.

What about the MIC (Aspergillus flavus [19]) of the same compound?
Its MIC is 16 µg/mL.

And the MIC (Aspergillus fumigatus [20])?
The MIC was 16 µg/mL.

And the MIC (Cryptococcus neoformans [21])?
The MIC was 8 µg/mL.

And the MIC (Candida albicans [22])?
The MIC was 1.25 µg/mL.

And the MIC (Aspergillus flavus [23])?
Its MIC is 0.625 µg/mL.

What about the MIC (Aspergillus fumigatus [24]) of the same compound?
Its MIC is 0.75 µg/mL.

And the MIC (Cryptococcus neoformans [25])?
The MIC was 1.5 µg/mL.

What about the “fractional inhibitory concentration index (FICI)” value (Aspergillus fumigatus [26]) of the same compound?
The value was 2.

What about the “fractional inhibitory concentration index (FICI)” value (Candida albicans [27]) of the same compound?
Its value is 1.

What about the “fractional inhibitory concentration index (FICI)” value (Aspergillus flavus [28]) of the same compound?
Its value is 1.5.

And the Activity (A549 [29])?
The Activity was 97.1%.

What about the Activity (A549 [30]) of the same compound?
The Activity was 93.8%.

What about the Activity (A549 [31]) of the same compound?
Its Activity is 92.2%.

And the Activity (A549 [32])?
Its Activity is 91.9%.

What about the Activity (A549 [33]) of the same compound?
Its Activity is 87.6%.

What about the Activity (A549 [34]) of the same compound?
The Activity was 73.5%.

And the “fractional inhibitory concentration index (FICI)” value (Cryptococcus neoformans [35])?
Its value is 0.75.

What about the MIC (Candida albicans [36]) of the same compound?
The MIC was 8 µg/mL.

What about the MIC (Aspergillus flavus [37]) of the same compound?
Its MIC is 16 µg/mL.

What about the MIC (Aspergillus fumigatus [38]) of the same compound?
The MIC was 16 µg/mL.

And the MIC (Cryptococcus neoformans [39])?
Its MIC is 8 µg/mL.

And the “fractional inhibitory concentration index (FICI)” value (Candida albicans [40])?
Its value is 0.625.

What about the “fractional inhibitory concentration index (FICI)” value (Aspergillus flavus [41]) of the same compound?
The value was 0.75.

What about the “fractional inhibitory concentration index (FICI)” value (Aspergillus fumigatus [42]) of the same compound?
Its value is 2.

What about the “fractional inhibitory concentration index (FICI)” value (Cryptococcus neoformans [43]) of the same compound?
Its value is 1.5.

Which results are given for `NC(=O)OC[C@H](O)[C@@H](O)[C@H](N)C(=O)N[C@H](C(=O)O)[C@H]1O[C@@H](n2cc(CO)c(=O)[nH]c2=O)[C@H](O)[C@@H]1O` [POLYOXIN B]?
inhibition (Candida tropicalis [1]): 86.4%; IC50 [2]: 82 µM; MIC (Candida albicans [5]): 16 µg/mL (≈ 31.5 µM); MIC (Aspergillus flavus [6]): 16 µg/mL (≈ 31.5 µM); MIC (Aspergillus fumigatus [7]): 8 µg/mL (≈ 15.8 µM); MIC (Cryptococcus neoformans [8]): 16 µg/mL (≈ 31.5 µM); MIC (Aspergillus flavus [10]): 512 µg/mL; MIC (Aspergillus fumigatus [11]): 128 µg/mL; MIC (Cryptococcus neoformans [12]): 256 µg/mL; MIC (Candida albicans [18]): 16 µg/mL; MIC (Aspergillus flavus [19]): 16 µg/mL; MIC (Aspergillus fumigatus [20]): 8 µg/mL; MIC (Cryptococcus neoformans [21]): 16 µg/mL; Activity (A549 [29]): 99.2%; Activity (A549 [30]): 98.8%; Activity (A549 [31]): 97.9%; Activity (A549 [32]): 92.7%; Activity (A549 [33]): 91.2%; Activity (A549 [34]): 84.3%

Source: ChEMBL document CHEMBL6127079, “Design and synthesis of spiro[pyrrolidine-3,3'-quinoline]-2,2'-dione derivatives as novel antifungal agents targeting chitin synthase” (Eur J Med Chem, 2024)
